In article PMC6193938, “Characterization of a novel AICARFT inhibitor which potently elevates ZMP and has anti-tumor activity in murine models” (Scientific Reports, 2018):

Legend:
NCI-H460 xenografts = experiment: Pharmacodynamic response of tumor metabolites, single PO dose, low folate chow; type: in vivo, mouse
Description: Figure 4 Pharmacodynamic response of ZMP (purple), AICAR (blue), […] (green), dUMP (red), AMP (aqua) & GMP (orange) metabolites in tumors following a single PO dose of LSN3213128 in athymic nude mice.

A9 tumor = experiment: Antitumor efficacy and tumor metabolites, A9 tumor model; type: in vivo, mouse; details: A9 tumors
protein kinase = experiment: Panel of protein kinase assays at CEREP Panlabs (Eurofins), overall; type: biochemical
ABL = target: T1, ABL (Homo sapiens, UniProt P00519); experiment: CEREP protein kinase assay; type: biochemical
T1 construct: purchased CEREP Panlabs (Eurofins)

CHK1 = target: T2, CHK1 (Homo sapiens, UniProt O14757); experiment: CEREP protein kinase assay; type: biochemical
T2 construct: purchased CEREP Panlabs (Eurofins)
T2 sequence (O14757 1-476): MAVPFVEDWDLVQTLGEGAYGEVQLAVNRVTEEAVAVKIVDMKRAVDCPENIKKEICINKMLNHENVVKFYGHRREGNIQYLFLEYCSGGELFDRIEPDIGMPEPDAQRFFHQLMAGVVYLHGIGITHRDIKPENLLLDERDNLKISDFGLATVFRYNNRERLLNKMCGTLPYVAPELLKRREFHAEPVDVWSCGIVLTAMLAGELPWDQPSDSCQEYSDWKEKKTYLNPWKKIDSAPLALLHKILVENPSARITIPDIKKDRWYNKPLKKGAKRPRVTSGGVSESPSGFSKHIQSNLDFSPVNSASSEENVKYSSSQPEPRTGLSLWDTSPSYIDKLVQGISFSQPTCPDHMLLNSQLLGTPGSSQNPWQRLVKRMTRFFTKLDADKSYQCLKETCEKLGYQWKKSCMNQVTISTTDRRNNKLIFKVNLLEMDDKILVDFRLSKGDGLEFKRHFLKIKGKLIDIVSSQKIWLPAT

EGFR = target: T3, EGFR (Homo sapiens, UniProt P00533); experiment: CEREP protein kinase assay; type: biochemical
T3 construct: purchased CEREP Panlabs (Eurofins)

EPHB1 = target: T4, EPHB1 (Homo sapiens, UniProt P54762); experiment: CEREP protein kinase assay; type: biochemical
T4 construct: purchased CEREP Panlabs (Eurofins)
T4 sequence (P54762 18-984): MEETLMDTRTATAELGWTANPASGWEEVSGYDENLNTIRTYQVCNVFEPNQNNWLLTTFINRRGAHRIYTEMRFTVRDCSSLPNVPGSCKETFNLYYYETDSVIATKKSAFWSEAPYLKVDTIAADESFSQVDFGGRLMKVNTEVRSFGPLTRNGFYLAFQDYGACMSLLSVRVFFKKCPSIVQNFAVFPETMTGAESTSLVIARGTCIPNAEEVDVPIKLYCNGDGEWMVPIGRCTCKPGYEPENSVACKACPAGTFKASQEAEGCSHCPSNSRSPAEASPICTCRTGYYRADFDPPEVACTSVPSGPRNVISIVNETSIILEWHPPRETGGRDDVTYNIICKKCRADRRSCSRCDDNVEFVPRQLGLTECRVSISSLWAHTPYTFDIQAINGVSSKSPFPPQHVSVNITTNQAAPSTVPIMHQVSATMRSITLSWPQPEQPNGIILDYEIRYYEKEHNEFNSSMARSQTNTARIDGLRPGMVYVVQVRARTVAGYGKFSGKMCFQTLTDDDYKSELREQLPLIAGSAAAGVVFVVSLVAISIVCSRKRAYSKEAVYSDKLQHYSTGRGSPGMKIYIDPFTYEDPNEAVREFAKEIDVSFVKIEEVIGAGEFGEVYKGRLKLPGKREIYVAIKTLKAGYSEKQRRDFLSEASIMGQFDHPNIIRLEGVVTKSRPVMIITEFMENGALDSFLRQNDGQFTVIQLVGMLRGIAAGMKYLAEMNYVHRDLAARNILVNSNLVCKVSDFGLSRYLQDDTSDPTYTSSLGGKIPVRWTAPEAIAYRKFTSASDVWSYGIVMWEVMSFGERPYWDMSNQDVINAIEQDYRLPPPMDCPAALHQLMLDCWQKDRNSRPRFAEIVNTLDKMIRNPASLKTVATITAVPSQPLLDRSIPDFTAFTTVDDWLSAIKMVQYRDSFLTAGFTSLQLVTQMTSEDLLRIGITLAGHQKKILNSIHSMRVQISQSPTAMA

FAK = target: T5, FAK (Homo sapiens, UniProt Q05397); experiment: CEREP protein kinase assay; type: biochemical
T5 construct: purchased CEREP Panlabs (Eurofins)

JNK3 = target: T6, JNK3 (Homo sapiens, UniProt P53779); experiment: CEREP protein kinase assay; type: biochemical
T6 construct: purchased CEREP Panlabs (Eurofins)

PDGFRb = target: T7, PDGFRb (Homo sapiens, UniProt P09619); experiment: CEREP protein kinase assay; type: biochemical
T7 construct: purchased CEREP Panlabs (Eurofins)

PLK3 = target: T8, PLK3 (Homo sapiens, UniProt Q9H4B4); experiment: CEREP protein kinase assay; type: biochemical
T8 construct: purchased CEREP Panlabs (Eurofins)

SGK1 = target: T9, SGK1 (Homo sapiens, UniProt O00141); experiment: CEREP protein kinase assay; type: biochemical
T9 construct: purchased CEREP Panlabs (Eurofins)
T9 sequence (O00141 1-431): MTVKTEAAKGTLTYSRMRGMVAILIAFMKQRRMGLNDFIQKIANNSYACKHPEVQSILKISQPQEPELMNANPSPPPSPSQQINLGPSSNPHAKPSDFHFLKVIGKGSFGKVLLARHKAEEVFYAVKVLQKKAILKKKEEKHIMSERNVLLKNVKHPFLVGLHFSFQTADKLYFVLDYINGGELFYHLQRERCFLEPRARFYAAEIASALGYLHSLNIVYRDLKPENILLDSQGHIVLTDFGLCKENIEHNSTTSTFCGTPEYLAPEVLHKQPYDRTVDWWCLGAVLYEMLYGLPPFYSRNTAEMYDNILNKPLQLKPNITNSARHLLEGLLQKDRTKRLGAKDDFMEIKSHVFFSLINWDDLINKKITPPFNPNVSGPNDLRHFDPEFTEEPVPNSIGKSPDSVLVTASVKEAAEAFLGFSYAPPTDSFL

SIK = target: T10, SIK (Homo sapiens, UniProt P57059); experiment: CEREP protein kinase assay; type: biochemical
T10 construct: purchased CEREP Panlabs (Eurofins)
T10 sequence (P57059 whole entry): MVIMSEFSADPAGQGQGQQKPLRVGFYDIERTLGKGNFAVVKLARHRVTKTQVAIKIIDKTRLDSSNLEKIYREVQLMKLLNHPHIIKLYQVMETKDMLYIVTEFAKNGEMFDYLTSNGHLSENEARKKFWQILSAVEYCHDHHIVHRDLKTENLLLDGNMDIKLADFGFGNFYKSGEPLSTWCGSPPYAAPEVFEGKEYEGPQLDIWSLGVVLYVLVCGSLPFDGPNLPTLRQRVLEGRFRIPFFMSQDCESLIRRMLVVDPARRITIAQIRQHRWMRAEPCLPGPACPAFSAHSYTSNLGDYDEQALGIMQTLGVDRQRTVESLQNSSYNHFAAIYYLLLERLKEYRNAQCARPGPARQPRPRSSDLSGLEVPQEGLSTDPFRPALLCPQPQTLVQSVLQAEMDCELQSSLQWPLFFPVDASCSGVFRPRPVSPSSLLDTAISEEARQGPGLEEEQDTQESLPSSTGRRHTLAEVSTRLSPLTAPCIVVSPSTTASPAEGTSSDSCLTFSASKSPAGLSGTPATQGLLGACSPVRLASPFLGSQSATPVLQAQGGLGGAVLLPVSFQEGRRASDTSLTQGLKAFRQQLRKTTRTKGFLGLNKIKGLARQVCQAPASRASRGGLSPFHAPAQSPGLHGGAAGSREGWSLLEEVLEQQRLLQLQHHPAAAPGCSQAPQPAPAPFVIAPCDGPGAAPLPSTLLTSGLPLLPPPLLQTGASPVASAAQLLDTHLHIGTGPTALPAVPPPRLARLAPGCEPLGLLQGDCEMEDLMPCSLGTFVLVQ

T7 sequence (P09619 33-1106): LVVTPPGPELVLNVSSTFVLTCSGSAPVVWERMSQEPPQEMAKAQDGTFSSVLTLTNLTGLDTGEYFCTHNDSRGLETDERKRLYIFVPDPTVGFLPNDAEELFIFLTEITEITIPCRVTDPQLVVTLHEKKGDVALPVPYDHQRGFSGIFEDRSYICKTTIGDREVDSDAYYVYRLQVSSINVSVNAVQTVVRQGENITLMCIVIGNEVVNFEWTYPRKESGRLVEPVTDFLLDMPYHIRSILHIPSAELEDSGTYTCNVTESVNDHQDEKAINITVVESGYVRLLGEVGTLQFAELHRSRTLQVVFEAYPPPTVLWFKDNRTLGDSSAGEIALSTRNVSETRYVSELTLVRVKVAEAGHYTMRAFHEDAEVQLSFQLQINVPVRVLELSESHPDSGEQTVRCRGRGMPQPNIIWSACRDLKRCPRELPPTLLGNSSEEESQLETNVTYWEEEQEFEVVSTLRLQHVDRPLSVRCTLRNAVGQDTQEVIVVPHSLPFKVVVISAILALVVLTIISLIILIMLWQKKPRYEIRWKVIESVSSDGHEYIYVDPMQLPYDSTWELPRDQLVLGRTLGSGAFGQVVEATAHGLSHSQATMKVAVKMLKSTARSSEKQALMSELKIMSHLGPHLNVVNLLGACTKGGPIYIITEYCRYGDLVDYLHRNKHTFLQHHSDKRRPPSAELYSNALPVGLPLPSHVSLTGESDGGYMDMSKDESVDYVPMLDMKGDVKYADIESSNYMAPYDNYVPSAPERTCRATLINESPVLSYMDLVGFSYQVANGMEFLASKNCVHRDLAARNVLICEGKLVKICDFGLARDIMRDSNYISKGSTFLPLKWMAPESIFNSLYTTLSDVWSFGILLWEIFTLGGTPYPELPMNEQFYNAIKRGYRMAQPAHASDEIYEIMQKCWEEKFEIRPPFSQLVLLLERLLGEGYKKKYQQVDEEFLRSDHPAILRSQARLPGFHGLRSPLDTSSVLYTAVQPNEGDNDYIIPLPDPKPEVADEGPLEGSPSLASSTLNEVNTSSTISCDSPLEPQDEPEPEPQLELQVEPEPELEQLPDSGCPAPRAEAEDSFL
T1 sequence (P00519 whole entry): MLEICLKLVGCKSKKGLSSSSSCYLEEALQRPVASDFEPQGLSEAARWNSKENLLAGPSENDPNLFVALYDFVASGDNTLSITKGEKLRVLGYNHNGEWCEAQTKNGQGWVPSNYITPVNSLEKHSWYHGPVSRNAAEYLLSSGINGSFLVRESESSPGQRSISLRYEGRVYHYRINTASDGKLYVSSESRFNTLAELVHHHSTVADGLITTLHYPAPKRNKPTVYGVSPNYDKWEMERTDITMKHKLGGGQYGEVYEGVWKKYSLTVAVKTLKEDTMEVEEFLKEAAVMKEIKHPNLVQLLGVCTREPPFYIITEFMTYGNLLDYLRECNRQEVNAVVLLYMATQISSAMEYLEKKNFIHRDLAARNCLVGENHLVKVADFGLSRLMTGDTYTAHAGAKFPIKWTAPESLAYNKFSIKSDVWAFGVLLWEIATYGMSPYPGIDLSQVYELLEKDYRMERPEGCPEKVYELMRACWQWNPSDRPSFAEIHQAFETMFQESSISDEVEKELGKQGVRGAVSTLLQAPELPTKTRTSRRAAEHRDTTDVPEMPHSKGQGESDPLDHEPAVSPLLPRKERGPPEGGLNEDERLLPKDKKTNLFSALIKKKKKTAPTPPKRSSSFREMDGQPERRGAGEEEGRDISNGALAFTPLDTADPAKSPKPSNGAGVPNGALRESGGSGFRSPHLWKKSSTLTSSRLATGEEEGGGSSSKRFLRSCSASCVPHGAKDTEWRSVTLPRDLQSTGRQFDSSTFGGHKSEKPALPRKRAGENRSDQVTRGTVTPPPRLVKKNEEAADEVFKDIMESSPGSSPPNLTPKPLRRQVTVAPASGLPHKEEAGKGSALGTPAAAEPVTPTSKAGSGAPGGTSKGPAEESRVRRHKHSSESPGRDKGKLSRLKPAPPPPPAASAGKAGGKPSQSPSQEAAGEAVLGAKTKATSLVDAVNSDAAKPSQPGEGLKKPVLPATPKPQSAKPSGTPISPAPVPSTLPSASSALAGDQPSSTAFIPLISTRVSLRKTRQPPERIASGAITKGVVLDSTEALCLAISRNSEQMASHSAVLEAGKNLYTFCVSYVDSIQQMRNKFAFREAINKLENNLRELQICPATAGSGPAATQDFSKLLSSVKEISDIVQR
T5 sequence (Q05397 whole entry): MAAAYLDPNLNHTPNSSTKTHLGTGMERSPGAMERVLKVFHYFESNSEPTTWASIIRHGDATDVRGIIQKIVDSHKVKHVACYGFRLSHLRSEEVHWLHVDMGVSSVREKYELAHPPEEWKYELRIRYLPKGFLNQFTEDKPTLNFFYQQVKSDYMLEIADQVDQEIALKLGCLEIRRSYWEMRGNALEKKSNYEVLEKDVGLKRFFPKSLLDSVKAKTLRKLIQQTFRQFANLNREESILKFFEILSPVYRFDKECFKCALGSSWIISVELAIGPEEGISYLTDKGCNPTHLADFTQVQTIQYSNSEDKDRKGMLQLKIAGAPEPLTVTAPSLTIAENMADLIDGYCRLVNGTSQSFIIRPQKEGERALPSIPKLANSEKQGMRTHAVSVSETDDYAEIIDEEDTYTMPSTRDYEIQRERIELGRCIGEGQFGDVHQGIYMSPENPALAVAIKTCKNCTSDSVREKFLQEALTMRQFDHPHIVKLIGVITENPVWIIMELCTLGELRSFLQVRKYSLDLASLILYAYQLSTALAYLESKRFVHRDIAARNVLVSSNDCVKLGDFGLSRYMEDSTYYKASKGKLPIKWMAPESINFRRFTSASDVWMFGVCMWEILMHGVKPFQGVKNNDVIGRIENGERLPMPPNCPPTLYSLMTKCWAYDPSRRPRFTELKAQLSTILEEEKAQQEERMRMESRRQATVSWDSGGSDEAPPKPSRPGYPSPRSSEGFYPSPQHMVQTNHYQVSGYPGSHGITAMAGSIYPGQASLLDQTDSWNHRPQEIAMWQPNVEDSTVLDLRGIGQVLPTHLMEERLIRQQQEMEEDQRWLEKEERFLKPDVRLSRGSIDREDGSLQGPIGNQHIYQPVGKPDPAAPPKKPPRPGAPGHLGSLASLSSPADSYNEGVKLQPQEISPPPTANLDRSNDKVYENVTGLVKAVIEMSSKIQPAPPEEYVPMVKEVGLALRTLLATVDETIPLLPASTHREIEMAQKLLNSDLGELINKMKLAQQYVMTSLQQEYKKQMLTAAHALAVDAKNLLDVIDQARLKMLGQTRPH
T6 sequence (P53779 whole entry): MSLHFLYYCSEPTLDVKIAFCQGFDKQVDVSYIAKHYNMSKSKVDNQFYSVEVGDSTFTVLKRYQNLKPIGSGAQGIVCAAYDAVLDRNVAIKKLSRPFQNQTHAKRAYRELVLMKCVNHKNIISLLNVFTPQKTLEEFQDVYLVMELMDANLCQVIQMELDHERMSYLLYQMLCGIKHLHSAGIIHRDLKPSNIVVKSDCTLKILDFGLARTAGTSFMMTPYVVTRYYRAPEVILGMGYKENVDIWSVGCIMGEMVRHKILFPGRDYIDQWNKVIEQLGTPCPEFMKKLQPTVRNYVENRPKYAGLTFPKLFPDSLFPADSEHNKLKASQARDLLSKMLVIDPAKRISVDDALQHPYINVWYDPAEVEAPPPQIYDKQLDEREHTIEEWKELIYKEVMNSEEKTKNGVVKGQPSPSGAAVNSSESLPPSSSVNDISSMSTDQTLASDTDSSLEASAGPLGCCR

Structure (SMILES): O=c1[nH]ccc2cc(F)c(NS(=O)(=O)c3ccc(N4CC[C@@H](O)C4)s3)cc12 [LSN3213128, N-(6-Fluoro-1-oxo-1,2-dihydroisoquinolin-7-yl)-5-[(3R)-3-hydroxypyrrolidin-1-yl]thiophene-2-sulfonamide]
- tumor dUMP levels (NCI-H460 xenografts; low folate chow, 4 h, up to 60 mg/kg): unchanged
- dose at which tumor ZMP response appears to saturate (NCI-H460 xenografts; nude mice on low folate chow, 4 h post PO dose): 1 mg/kg
- tumor dUMP (A9 tumor; 100 mg/kg QDx12 dose group): 0.72 ± 0.41 µM
- tumor ZMP levels (A9 tumor; after 12 days of dosing, 100 mg/kg): dramatically elevated
- protein kinase activity, panel (protein kinase): no significant protein kinase activity
- inhibition at 0.2 µM (ABL; @ 0.2 uM): -13.8%
- inhibition at 2 µM (ABL; @ 2 uM): -14.6%
- inhibition at 20 µM (ABL; @ 20 uM): -0.27%
- inhibition at 0.2 µM (CHK1; @ 0.2 uM): -8.96%
- inhibition at 2 µM (CHK1; @ 2 uM): 14.5%
- inhibition at 20 µM (CHK1; @ 20 uM): 5.24%
- inhibition at 0.2 µM (EGFR; @ 0.2 uM): -11.7%
- inhibition at 2 µM (EGFR; @ 2 uM): 2.87%
- inhibition at 20 µM (EGFR; @ 20 uM): -0.46%
- inhibition at 0.2 µM (EPHB1; @ 0.2 uM): -10.2%
- inhibition at 2 µM (EPHB1; @ 2 uM): 11.7%
- inhibition at 20 µM (EPHB1; @ 20 uM): 57.1%
- inhibition at 0.2 µM (FAK; @ 0.2 uM): -12.7%
- inhibition at 2 µM (FAK; @ 2 uM): -4.84%
- inhibition at 20 µM (FAK; @ 20 uM): 40.1%
- inhibition at 0.2 µM (JNK3; @ 0.2 uM): -0.752%
- inhibition at 2 µM (JNK3; @ 2 uM): 19.2%
- inhibition at 20 µM (JNK3; @ 20 uM): 76.2%
- inhibition at 0.2 µM (PDGFRb; @ 0.2 uM): -85.9%
- inhibition at 2 µM (PDGFRb; @ 2 uM): -63.2%
- inhibition at 20 µM (PDGFRb; @ 20 uM): -71%
- inhibition at 0.2 µM (PLK3; @ 0.2 uM): 13.4%
- inhibition at 2 µM (PLK3; @ 2 uM): 12%
- inhibition at 20 µM (PLK3; @ 20 uM): 60.5%
- inhibition at 0.2 µM (SGK1; @ 0.2 uM): -4.06%
- inhibition at 2 µM (SGK1; @ 2 uM): 7.54%
- inhibition at 20 µM (SGK1; @ 20 uM): 17.3%
- inhibition at 0.2 µM (SIK; @ 0.2 uM): -1.42%
- inhibition at 2 µM (SIK; @ 2 uM): 3.69%
- inhibition at 20 µM (SIK; @ 20 uM): 3.12%
